Measured values as given in PubChem BioAssay (NCI).
“And” between values parts separate entries of the source, which are not always exact repeats. Identical values can stand only once.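 These data come from cells grown in 96-well plates and exposed to compound for 48 hours at five concentrations. GI50 = concentration required for 50% inhibition of growth. TGI denotes the concentration required for complete inhibition of growth.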

Columns and labels:
Assay in all cases: NCI tumour cell line growth inhibition, 48 h
U251 CNS = test system: U251 CNS
PC-3 prostate = test system: PC-3 prostate
NCI-H522 lung = test system: NCI-H522 lung
HOP-18 NSCLC = test system: HOP-18 NSCLC
XF 498 CNS = test system: XF 498 CNS
MDA-MB-435 = test system: MDA-MB-435
DMS 273 small cell lung = test system: DMS 273 small cell lung
M19-MEL melanoma = test system: M19-MEL melanoma
KM20L2 colon = test system: KM20L2 colon
NCI/ADR-RES ovarian = test system: NCI/ADR-RES ovarian

SMILES: O=C(O)C1OC(n2cc(F)c(=O)[nH]c2=O)CC1O (stereo not drawn)
- TGI (U251 CNS): > 100 µM
- TGI (PC-3 prostate): > 100 µM
- TGI (NCI-H522 lung): > 100 µM
- TGI (HOP-18 NSCLC): > 100 µM
- TGI (XF 498 CNS): > 100 µM
- TGI (MDA-MB-435): > 100 µM
- TGI (DMS 273 small cell lung): > 100 µM
- TGI (M19-MEL melanoma): > 100 µM
- TGI (KM20L2 colon): > 100 µM
- TGI (NCI/ADR-RES ovarian): > 100 µM

SMILES: COc1cccc2c1C(=O)c1c(O)c3c(c(O)c1C2=O)C[C@@](O)(C(C)=O)C[C@@H]3OC1OC(C)C(O)C(N)C1Br (stereo partly drawn)
- TGI (U251 CNS): 1.07 µM and 2.21 µM
- TGI (PC-3 prostate): 1.03 µM
- GI50 (NCI-H522 lung): 0.0563 µM
- TGI (NCI-H522 lung): 0.449 µM and 0.324 µM
- TGI (HOP-18 NSCLC): 0.345 µM
- GI50 (XF 498 CNS): 0.0766 µM
- TGI (XF 498 CNS): 0.414 µM and 0.423 µM
- TGI (MDA-MB-435): 1.13 µM
- TGI (DMS 273 small cell lung): 0.268 µM and 0.151 µM
- TGI (M19-MEL melanoma): 0.364 µM and 0.328 µM
- TGI (KM20L2 colon): 1.17 µM

SMILES: COc1cc2c(cc1OC)C(CC(=O)NN=C(C)C)NCC2 (stereo not drawn)
- TGI (U251 CNS): > 100 µM
- TGI (NCI-H522 lung): > 100 µM
- TGI (HOP-18 NSCLC): > 100 µM
- TGI (XF 498 CNS): > 100 µM
- TGI (DMS 273 small cell lung): > 100 µM
- TGI (M19-MEL melanoma): > 100 µM
- TGI (KM20L2 colon): > 100 µM

SMILES: CCOC(=O)C1=C(C)N(NC(=O)Nc2ccccc2)C(=O)C1=P(c1ccccc1)(c1ccccc1)c1ccccc1
- TGI (U251 CNS): > 100 µM
- TGI (NCI-H522 lung): 63.8 µM
- TGI (HOP-18 NSCLC): > 100 µM
- TGI (XF 498 CNS): 95.3 µM
- TGI (DMS 273 small cell lung): > 100 µM
- TGI (M19-MEL melanoma): > 100 µM
- TGI (KM20L2 colon): > 100 µM

SMILES: CCOC(=O)CC1(C(=O)OCC)c2[nH]c3ccccc3c2CCN1Cc1ccccc1 (stereo not drawn)
- TGI (U251 CNS): 29 µM
- TGI (NCI-H522 lung): 28.1 µM
- TGI (HOP-18 NSCLC): 54.4 µM
- TGI (XF 498 CNS): 41.4 µM
- TGI (DMS 273 small cell lung): 32 µM
- TGI (M19-MEL melanoma): 27.6 µM
- TGI (KM20L2 colon): 32.5 µM

SMILES: COc1ccc(C(=O)C(C(=O)CCC(=O)Nc2cccc(Cl)c2)c2ccc(OC)cc2)cc1 (stereo not drawn)
- TGI (U251 CNS): > 100 µM
- TGI (NCI-H522 lung): > 100 µM
- TGI (HOP-18 NSCLC): > 100 µM
- TGI (XF 498 CNS): > 100 µM
- TGI (DMS 273 small cell lung): > 100 µM
- TGI (M19-MEL melanoma): > 100 µM
- TGI (KM20L2 colon): > 100 µM

SMILES: COc1ccccc1CCc1cc(OC)c(OC)c(OC)c1
- TGI (U251 CNS): > 100 µM
- TGI (NCI-H522 lung): > 100 µM
- TGI (HOP-18 NSCLC): > 100 µM
- TGI (XF 498 CNS): 84.8 µM
- TGI (DMS 273 small cell lung): > 100 µM
- TGI (M19-MEL melanoma): > 100 µM
- TGI (KM20L2 colon): > 100 µM

SMILES: C1=CC2SSSC2C1 (stereo not drawn)
- TGI (U251 CNS): > 100 µM
- TGI (NCI-H522 lung): > 100 µM
- TGI (HOP-18 NSCLC): > 100 µM
- TGI (XF 498 CNS): > 100 µM
- TGI (DMS 273 small cell lung): > 100 µM
- TGI (M19-MEL melanoma): > 100 µM
- TGI (KM20L2 colon): > 100 µM
